System: patients with pulmonary arterial hypertension
Assay: Phase 4 open-label 16-week study: echocardiography parameters
Assay type: in vivo, human
Text: Based on the 2015 ESC/ERS Guidelines, specific hemodynamic inclusion criteria included a mean pulmonary arterial pressure ≥25 mmHg, pulmonary artery wedge pressure or left ventricular end-diastolic pressure ≤15 mmHg, and pulmonary vascular resistance >3 Wood units, in the absence of unrepaired congenital heart disease. Other key inclusion criteria were World Health Organization functional class (FC) II or III, 6-minute walk distance (6MWD)≥250 m, and a REVEAL 2.0 risk score ≤9 (Benza et al. 2021, DOI: https://doi.org/10.1016/j.chest.2020.08.2069). Patients could be receiving up to two oral PAH background therapies if taken at a stable dose for ≥30 days prior to baseline. As this study focused on the addition of a new therapy rather than the replacement of one therapy by another therapy, participants were eligible regardless of the number of pulmonary arterial hypertension background therapies (0, 1, or 2) they were receiving at baseline. […] Baseline assessments were collected up to 14 days prior to initiation of parenteral treprostinil, and included hemodynamics via echocardiogram and RHC, FC, N-terminal-pro brain natriuretic peptide (NT-proBNP), 6MWD, and medication history. Of note, historical RHC data could be used for baseline assessments if performed up to 180 days prior to initiating parenteral treprostinil. Echocardiograms were uploaded and stored in a central repository and evaluated by an independent central reader in accordance with the American Society of Echocardiography Guidelines (Bossone et al., DOI: 10.1016/j.echo.2012.10.009).
Once patients reached at least 20 ng/kg/min and were deemed suitable for transition based on physician assessment, they were transitioned at Week 2,4, or 8 to oral treprostinil via cross-titration in an inpatient or outpatient setting over 1-21 days. All participants still receiving parenteral treprostinil at Week 8 began transitioning to oral treprostinil regardless of their parenteral treprostinil dose unless deemed unsuitable for transition by their clinician. Before transition, 6MWD, WHO FC, NT-proBNP, and echocardiography parameters were assessed.
The primary endpoint was the percentage of patients who achieved an oral treprostinil TDD of at least 12 mg (0.171 mg/kg for patients <70 kg) at Week 16. Secondary endpoints included change from baseline to Week 16 in risk strata and clinical parameters, where baseline values were collected within 14 days prior to parenteral treprostinil initiation. Changes in risk strata for FC, NT-proBNP, 6MWD, and right atrial (RA) area were assessed using the 2015 ESC/ERS Guidelines, which categorizes risk for each determinant as low, intermediate, and high (Galiè et al., 2016). Clinical parameters of interest included FC, NT-proBNP, 6MWD, echocardiography parameters, REVEAL Lite 2 score (Benza et al., 2021), and Borg Dyspnea Score (Borg, 1982, DOI: https://doi.org/10.1249/00005768-198205000-00012). The REVEAL Lite 2 score includes clinical parameters to determine the risk status (low, intermediate, and high) for pulmonary arterial hypertension. The Borg Dyspnea Score ranges from 0 to 10, where 0 indicates no dyspnea and 10 indicates very, very heavy (almost maximal) dyspnea. Patient-reported outcomes were assessed using the emPHasis-10 quality of life questionnaire (Yorke et al., 2014, DOI: 10.1183/09031936.00127113) and the Pulmonary Arterial Hypertension Symptom Scale (PAHSS) (Matura et al., 2015, DOI: https://doi.org/10.1016/j.apnr.2014.04.001). The Treatment Satisfaction Questionnaire for Medication (TSQM) (Atkinson et al., 2004, DOI: https://doi.org/10.1186/1477-7525-2-12) was used to measure patient satisfaction with their medication over the last two to three weeks; higher scores indicate greater satisfaction. EmPHasis-10 scores can range from 0 to 50, where lower scores indicate better quality of life. […]

Question: `CCCCC[C@H](O)CC[C@@H]1[C@H]2Cc3cccc(OCC(=O)O)c3C[C@H]2C[C@H]1O` [oral treprostinil, treprostinil] was tested. Which “Cardiac output, median” value (Week 16) did it give?
Answer: 4.9 L/min

Question: What about the “Heart rate, median” value (Week 16) of the same molecule?
Answer: 76 bpm

Question: And the “LV diameter, median” value (Week 16)?
Answer: 44.9 mm

Question: And the “LV eccentricity, diast., median” value (Week 16)?
Answer: 1.0

Question: What about the “LV eccentricity, syst., median” value (Week 16) of the same molecule?
Answer: 1.2

Question: What about the “LVOT integral, median” value (Week 16) of the same molecule?
Answer: 19.5 cm

Question: And the “LVOT, median” value (Week 16)?
Answer: 19.6 mm

Question: And the “PVAT, median” value (Week 16)?
Answer: 89.9 ms

Question: And the “RA area, median” value (Week 16)?
Answer: 17.5 cm^2

Question: What about the “RV MPI, median” value (Week 16) of the same molecule?
Answer: 0.4

Question: What about the “RV diameter, median” value (Week 16) of the same molecule?
Answer: 24.8 mm

Question: What about the “RV wall strain, median” value (Week 16) of the same molecule?
Answer: −19.2%

Question: What about the “RV/LV ratio, diastole, median” value (Week 16) of the same molecule?
Answer: 0.6

Question: And the “TAPSE, median” value (Week 16)?
Answer: 19.9 mm

Question: What about the “Cardiac output, median Change from Baseline” value (baseline to Week 16) of the same molecule?
Answer: +0.5 L/min

Question: And the “Heart rate, median Change from Baseline” value (baseline to Week 16)?
Answer: +2 bpm

Question: What about the “LV diameter, median Change from Baseline” value (baseline to Week 16) of the same molecule?
Answer: +3.5 mm

Question: What about the “LV eccentricity, diast., median Change from Baseline” value (baseline to Week 16) of the same molecule?
Answer: 0.0

Question: And the “LV eccentricity, syst., median Change from Baseline” value (baseline to Week 16)?
Answer: +0.1

Question: And the “LVOT integral, median Change from Baseline” value (baseline to Week 16)?
Answer: +0.9 cm

Question: And the “LVOT, median Change from Baseline” value (baseline to Week 16)?
Answer: +0.4 mm

Question: And the “PVAT, median Change from Baseline” value (baseline to Week 16)?
Answer: +4.4 ms

Question: What about the “RA area, median Change from Baseline” value (baseline to Week 16) of the same molecule?
Answer: −2.9 cm^2

Question: And the “RV MPI, median Change from Baseline” value (baseline to Week 16)?
Answer: −0.1

Question: What about the “RV diameter, median Change from Baseline” value (baseline to Week 16) of the same molecule?
Answer: −2.6 mm

Question: And the “RV wall strain, median Change from Baseline” value (baseline to Week 16)?
Answer: +1.3%

Question: What about the “RV/LV ratio, diastole, median Change from Baseline” value (baseline to Week 16) of the same molecule?
Answer: −0.1

Question: What about the “TAPSE, median Change from Baseline” value (baseline to Week 16) of the same molecule?
Answer: +1.2 mm

From patent publication US20240139207A1, “METHODS FOR TREATING PULMONARY HYPERTENSION” (United Therapeutics Corporation, priority 2022, published 2024)
